Data on 15 compounds can be found in US20260007758A1, “SO[…]-2 RECEPTOR (SST2R) NON-PEPTIDE DRUG CONJUGATES AND USES THEREOF” (Crinetics Pharmaceuticals, Inc., priority 2024, published 2026).

pEC50: −log10 of the molar value.

Type in all cases: cell-based
Assay [1] concerns NCI-H524 human small cell lung cancer cells. The assay can be described thus: H524 assay: inhibition of cell proliferation (CellTiter Glo). The conditions noted are these: 2 h treatment, washout, additional 70 h incubation. In short, it runs like this:
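NCI-H524 cells were exposed for 2 h to NDC in an 11-point two-fold series starting at 1 uM. The drug was then washed out and cells grew a further 70 h. CellTiter Glo luminescence gave % inhibition versus untreated control, and IC50 came from a four-parameter nonlinear regression.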
For orientation: In ATP-based viability assays light output follows the ATP content of the culture.

Assay [2] concerns the target T1, human somatostatin receptor subtype 2 (Homo sapiens, UniProt P30874).
T1 construct: expressed in transfected cells
The assay can be described thus: Functional assay for SSTR2 agonists (HTRF cAMP). The conditions noted are these: CHO-K1 cells stably expressing human SST2; NKH477-stimulated cAMP; 20 min at 37 C; read-out: hSST2 cAMP Avg EC50. In short, it runs like this: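 CHO-K1 cells stably expressing human SSTR2 treated with compound (typically 0-10,000 nM final) for 20 min at 37 °C. Lysate cAMP measured by HTRF (665/620 nm ratio), converted via standard curve; EC50 from cAMP vs concentration.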
For orientation: TR-FRET usually uses a lanthanide donor and a delayed reading to cut background.

The target in another assay is T2, SST2 (Homo sapiens, UniProt P30874).
T2 construct: host or cells: PathHunter CHO-K1 SST2 cells
The assay can be described thus: PathHunter CHO-K1 SST2 Internalization Assay. The following applies: PathHunter CHO-K1 SST2 cells; 90 min at 37 C; luminescence; read-out: Internalization EC50. In short, it runs like this: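 CHO-K1 cells expressing human SST2, 2500 cells/well, grown 48 h, then exposed 90 min at 37 C to 11-point 1:3 NDC dilutions (final top 10 uM). Beta-Glo luminescence after 60 min at room temperature; four-parameter IC50, duplicate mean, background-corrected.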

T2 sequence (P30874 whole entry): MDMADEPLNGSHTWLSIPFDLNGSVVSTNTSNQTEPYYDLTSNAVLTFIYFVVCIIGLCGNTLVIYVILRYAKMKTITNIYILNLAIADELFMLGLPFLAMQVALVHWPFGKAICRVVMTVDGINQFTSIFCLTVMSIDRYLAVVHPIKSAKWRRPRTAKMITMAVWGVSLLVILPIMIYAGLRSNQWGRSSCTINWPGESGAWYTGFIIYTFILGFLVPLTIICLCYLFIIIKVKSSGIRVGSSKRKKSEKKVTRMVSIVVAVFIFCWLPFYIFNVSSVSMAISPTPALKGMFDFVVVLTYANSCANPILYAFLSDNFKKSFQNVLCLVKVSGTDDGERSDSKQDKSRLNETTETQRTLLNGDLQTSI
T1 sequence (P30874 whole entry): as above

Usually pEC50 stands for −log10 of the EC50, conventionally taken in molar units. As for `CC[C@H](C)[C@@H]([C@@H](CC(=O)N1CCC[C@H]1[C@H](OC)[C@@H](C)C(=O)N[C@H](C)[C@@H](O)c1ccccc1)OC)N(C)C(=O)[C@@H](NC(=O)[C@H](C(C)C)N(C)C(=O)OCc1ccc(NC(=O)[C@H](C)NC(=O)[C@@H](NC(=O)CCOCCC(=O)NCCNc2ncc(-c3cc(F)cc(OC)c3)c(N3CCC(N)CC3)c2-c2nc3ccc(Cl)cc3[nH]2)C(C)C)c(O[C@@H]2O[C@H](C(=O)O)[C@@H](O)[C@H](O)[C@H]2O)c1)C(C)C` [Compound 139], the pEC50 was 7.52 in assay [1], 10.00 in assay [2] and 8.31 on SST2.
Turning to `CC[C@H](C)[C@@H]([C@@H](CC(=O)N1CCC[C@H]1[C@H](OC)[C@@H](C)C(=O)N[C@H](C)[C@@H](O)c1ccccc1)OC)N(C)C(=O)[C@@H](NC(=O)[C@H](C(C)C)N(C)C(=O)OCc1ccc(NC(=O)[C@H](C)NC(=O)[C@@H](NC(=O)CCOCCC(=O)NCCNc2ncc(-c3cc(C)cc(F)c3)c(N3CCC(N)CC3)c2-c2nc3ccc(Cl)cc3[nH]2)C(C)C)c(O[C@@H]2O[C@H](C(N)=O)[C@@H](O)[C@H](O)[C@H]2O)c1)C(C)C` [Compound 34], the pEC50 is 8.80 in assay [1], 9.92 in assay [2] and 8.36 on SST2.
Taken in the same sequence, the figures for `CC[C@H](C)[C@@H]([C@@H](CC(=O)N1CCC[C@H]1[C@H](OC)[C@@H](C)C(=O)N[C@H](C)[C@@H](O)c1ccccc1)OC)N(C)C(=O)[C@@H](NC(=O)[C@H](C(C)C)N(C)C(=O)OCc1ccc(NC(=O)[C@H](C)NC(=O)[C@@H](NC(=O)CCOCCC(=O)NCCNc2ncc(-c3cc(C)cc(F)c3)c(N3CCC(N)CC3)c2-c2nc3cc(F)c(F)cc3[nH]2)C(C)C)c(O[C@@H]2O[C@H](C(=O)O)[C@@H](O)[C@H](O)[C@H]2O)c1)C(C)C` [Compound 108] were 7.28, 9.74 and 8.09.
For `CC[C@H](C)[C@@H]([C@@H](CC(=O)N1CCC[C@H]1[C@H](OC)[C@@H](C)C(=O)N[C@H](C)[C@@H](O)c1ccccc1)OC)N(C)C(=O)[C@@H](NC(=O)[C@H](C(C)C)N(C)C(=O)OCc1ccc(NC(=O)[C@H](C)NC(=O)[C@@H](NC(=O)CCOCCC(=O)NCCNc2ncc(-c3cc(C)cc(F)c3)c(N3CCC(N)CC3)c2-c2nc3c(F)c(F)ccc3[nH]2)C(C)C)c(O[C@@H]2O[C@H](C(=O)O)[C@@H](O)[C@H](O)[C@H]2O)c1)C(C)C` [Compound 109], the pEC50 is 6.70 in assay [1], 8.96 in assay [2] and 7.46 on SST2.
Regarding `CC[C@H](C)[C@@H]([C@@H](CC(=O)N1CCC[C@H]1[C@H](OC)[C@@H](C)C(=O)N[C@H](C)[C@@H](O)c1ccccc1)OC)N(C)C(=O)[C@@H](NC(=O)[C@H](C(C)C)N(C)C(=O)OCc1ccc(NC(=O)[C@H](CCCNC(N)=O)NC(=O)[C@@H](NC(=O)c2cc(NCCOCCC(=O)NCCNc3ncc(-c4cc(C)cc(F)c4)c(N4CCC(N)CC4)c3-c3nc4ccc(Cl)cc4[nH]3)cc(C(=O)NCCN)c2)C(C)C)cc1)C(C)C` [Compound 184], the negative logarithm of the EC50 (pEC50) was 6.62 in assay [1], 10.20 in assay [2] and 8.74 at SST2.
On the same counts, the results for `CC[C@H](C)[C@@H]([C@@H](CC(=O)N1CCC[C@H]1[C@H](OC)[C@@H](C)C(=O)N[C@H](C)[C@@H](O)c1ccccc1)OC)N(C)C(=O)[C@@H](NC(=O)[C@H](C(C)C)N(C)C(=O)OCc1ccc(NC(=O)[C@H](CCCNC(N)=O)NC(=O)[C@@H](NC(=O)CCOCCOCCOCCOCCC(=O)NCCNc2ncc(-c3cc(C)cc(F)c3)c(N3CCC(N)CC3)c2-c2nc3ccc(Cl)cc3[nH]2)C(C)C)cc1C(=O)N1CC(N)C1)C(C)C` [Compound 59] are 6.59, 9.60 and 8.70.
Taken in the same sequence, the figures for `CC[C@H](C)[C@@H]([C@@H](CC(=O)N1CCC[C@H]1[C@H](OC)[C@@H](C)C(=O)N[C@H](C)[C@@H](O)c1ccccc1)OC)N(C)C(=O)[C@@H](NC(=O)[C@H](C(C)C)N(C)C(=O)OCc1ccc(NC(=O)[C@H](C)NC(=O)[C@@H](NS(=O)(=O)C[C@H](C)NC(=O)CCOCCC(=O)NCCNc2ncc(-c3cc(C)cc(F)c3)c(N3CCC(N)CC3)c2-c2nc3ccc(Cl)cc3[nH]2)C(C)C)c(O[C@@H]2O[C@H](C(=O)N(C)CC(=O)O)[C@@H](O)[C@H](O)[C@H]2O)c1)C(C)C` [Compound 221] were 7.57, 9.82 and 8.06.
On the same counts, the results for `CC[C@H](C)[C@@H]([C@@H](CC(=O)N1CCC[C@H]1[C@H](OC)[C@@H](C)C(=O)N[C@H](C)[C@@H](O)c1ccccc1)OC)N(C)C(=O)[C@@H](NC(=O)C(C(C)C)N(C)C(=O)OCc1ccc(NC(=O)[C@H](CCCNC(N)=O)NC(=O)[C@@H](NC(=O)CCOCCC(=O)NCCNc2ncc(-c3cc(C)cc(F)c3)c(N3CCC(N)CC3)c2-c2nc3ccc(Cl)cc3[nH]2)C(C)C)c(O[C@@H]2O[C@H](C(=O)N3CCC(C(=O)O)CC3)[C@@H](O)[C@H](O)[C@H]2O)c1)C(C)C` (stereo partly drawn) [Compound 235] are 7.85, 9.96 and 8.36.
For `CC[C@H](C)[C@@H]([C@@H](CC(=O)N1CCC[C@H]1[C@H](OC)[C@@H](C)C(=O)N[C@H](C)[C@@H](O)c1ccccc1)OC)N(C)C(=O)[C@@H](NC(=O)[C@H](C(C)C)N(C)C(=O)OCc1ccc(NC(=O)[C@H](CCCNC(N)=O)NC(=O)[C@@H](NC(=O)C[C@@H](N)C(=O)NCCOCCC(=O)NCCNc2ncc(-c3cc(C)cc(F)c3)c(N3CCC(N)CC3)c2-c2nc3ccc(Cl)cc3[nH]2)C(C)C)c(O[C@@H]2O[C@H](C(=O)N[C@@H](CCCCNC(=O)CCCCc3ccc(I)cc3)C(=O)O)[C@@H](O)[C@H](O)[C@H]2O)c1)C(C)C` [Compound 211], the pEC50 in assay [1] was 7.05; in assay [2], 9.72; at SST2 it was 8.49.
Taken in the same sequence, the figures for `CC[C@H](C)[C@@H]([C@@H](CC(=O)N1CCC[C@H]1[C@H](OC)[C@@H](C)C(=O)N[C@H](C)[C@@H](O)c1ccccc1)OC)N(C)C(=O)[C@@H](NC(=O)[C@H](C(C)C)N(C)C(=O)OCc1ccc(NC(=O)[C@H](CCCNC(N)=O)NC(=O)[C@@H](NC(=O)c2cc(NCCOCCC(=O)NCCNc3ncc(-c4cc(C)cc(F)c4)c(N4CCC(N)CC4)c3-c3nc4ccc(Cl)cc4[nH]3)cc(C(=O)NCCC(=O)O)c2)C(C)C)cc1)C(C)C` [Compound 145] were 7.11, 9.42 and 7.77.
On the same counts, the results for `CC[C@H](C)[C@@H]([C@@H](CC(=O)N1CCC[C@H]1[C@H](OC)[C@@H](C)C(=O)N[C@H](C)[C@@H](O)c1ccccc1)OC)N(C)C(=O)[C@@H](NC(=O)[C@H](C(C)C)N(C)C(=O)OCc1ccc(NC(=O)[C@H](CCCNC(N)=O)NC(=O)[C@@H](NC(=O)CCOCCC(=O)NCCNc2ncc(-c3cc(C)cc(F)c3)c(N3CCC(N)CC3)c2-c2nc3ccc(Cl)cc3[nH]2)C(C)C)c(O[C@@H]2O[C@H](C(=O)NCCNC(=O)CCCCCO[PH](=O)OC3CCC(c4ccccc4)(c4ccccc4)CC3)[C@@H](O)[C@H](O)[C@H]2O)c1)C(C)C` (stereo partly drawn) [Compound 233] are 6.30, 9.00 and 7.74.
Taken in the same sequence, the figures for `CC[C@H](C)[C@@H]([C@@H](CC(=O)N1CCC[C@H]1[C@H](OC)[C@@H](C)C(=O)N[C@H](C)[C@@H](O)c1ccccc1)OC)N(C)C(=O)[C@@H](NC(=O)[C@H](C(C)C)N(C)C(=O)OCc1ccc(NC(=O)[C@H](CCCNC(N)=O)NC(=O)[C@@H](NC(=O)[C@H](CCC(=O)O)NC(=O)CCOCCC(=O)NCCNc2ncc(-c3cc(C)cc(F)c3)c(N3CCC(N)CC3)c2-c2nc3ccc(Cl)cc3[nH]2)C(C)C)c(OCCN)c1)C(C)C` [Compound 1] were 7.82, 9.60 and 7.74.
`CC[C@H](C)[C@@H]([C@@H](CC(=O)N1CCC[C@H]1[C@H](OC)[C@@H](C)C(=O)N[C@H](C)[C@@H](O)c1ccccc1)OC)N(C)C(=O)[C@@H](NC(=O)[C@H](C(C)C)N(C)C(=O)OCc1ccc(NC(=O)[C@H](CCCNC(N)=O)NC(=O)[C@@H](NC(=O)C[C@@H](N)C(=O)NCCOCCC(=O)NCCNc2ncc(-c3cc(C)cc(F)c3)c(N3CCC(N)CC3)c2-c2nc3ccc(Cl)cc3[nH]2)C(C)C)cc1C(=O)N1CC(C(=O)O)C1)C(C)C` [Compound 73]: the negative logarithm of the EC50 (pEC50) is 6.96 in assay [1], 10.22 in assay [2] and 8.51 on SST2.
Consider `CC[C@H](C)[C@@H]([C@@H](CC(=O)N1CCC[C@H]1[C@H](OC)[C@@H](C)C(=O)N[C@H](C)[C@@H](O)c1ccccc1)OC)N(C)C(=O)[C@@H](NC(=O)[C@H](C(C)C)N(C)C(=O)OCc1ccc(NC(=O)[C@H](CCCNC(N)=O)NC(=O)[C@@H](NC(=O)C[C@@H](N)C(=O)NCCOCCC(=O)NCCNc2ncc(-c3cc(C)cc(F)c3)c(N3CCC(N)CC3)c2-c2nc3ccc(Cl)cc3[nH]2)C(C)C)cc1)C(C)C` [Compound 181], for which the pEC50 is 6.72 in assay [1], 9.42 in assay [2] and 8.47 on SST2.
As for `CC[C@H](C)[C@@H]([C@@H](CC(=O)N1CCC[C@H]1[C@H](OC)[C@@H](C)C(=O)N[C@H](C)[C@@H](O)c1ccccc1)OC)N(C)C(=O)[C@@H](NC(=O)[C@H](C(C)C)N(C)C(=O)OCc1ccc(NC(=O)[C@H](CCCNC(N)=O)NC(=O)[C@@H](NC(=O)[C@H](CCc2nnn[nH]2)NC(=O)CCOCCC(=O)NCCNc2ncc(-c3cc(C)cc(F)c3)c(N3CCC(N)CC3)c2-c2nc3ccc(Cl)cc3[nH]2)C(C)C)cc1C(=O)NCCN)C(C)C` [Compound 84], the results for the pEC50 (in assay [1]; in assay [2]; at SST2) were 6.24, 9.55 and 8.42, respectively.
